This is an account of results in US20120083505A1, “Use of opioid receptor antagonists for acute treatment of paraphilic arousal states” (priority 2009, published 2012).

One assay relates to obsessive sexual desire. As to conditions: two cases; regular fixed dosage regimen over a longer period; after several treatments; cited from earlier work.
For assay [1], the system named is patients with paraphilic patterns of sexual excitation/arousal. The assay can be described thus: Case reports: acute nasal naloxone in two paedophilic patients, self-rated impulse control. The class given is in vivo, human. As to conditions: one or two puffs of nasal spray, 0.2 mg Naloxonhydrochloride per puff. An excerpt:
In the clinical application (two patients with paraphilic patterns of sexual excitation/arousal, both paedophiles, but with individual symptomatology) the following observations were made:
The patient is a person with paedophile inclination towards sexually immature girls (in addition to their predominant orientation towards adult women). In their first marriage they had repeatedly abused the child of their spouse […] (touching the genitals of the child, as well as having themself touched until reaching the climax). These crimes have not yet become known or led to any form of legal prosecution, and this first marriage is divorced since several years. Owing to their job as music teacher the patient was increasingly in contact with girls of the preferred age during the recent two years; the patient was very worried (and this worry was justified) that they might exploit the situation for the sexual abuse of their pupils. In the course of treatment at the Institute for Sexual Medicine of the Charité University Clinic of Berlin the patient has changed their professional field so that they are mainly involved in the treatment of grown-ups. […]

Regarding `O=C1CC[C@@]2(O)[C@H]3Cc4ccc(O)c5c4[C@@]2(CCN3CC2CC2)C1O5` (stereo partly drawn) [Naltrexon, 17-cyclopropylmethyl-3,14-dihydroxy-4,5-epoxy-morphinan-6-on], the “frequency of obsessive sexual desire” value with obsessive sexual desire is on record as “reduction in frequency of obsessive sexual desire could be observed”.
Consider `C=CCN1CC[C@]23c4c5ccc(O)c4O[C@H]2C(=O)CC[C@@]3(O)[C@H]1C5` [naloxone, 17-allyl-3,14-dihydroxy-4,5-epoxy-morphinan-6-on], for which the “sexual interest in the child” value in assay [1] (patient 1 (marked expression of symptoms)) is reported as “sufficient reduction of their sexual interest in the child”. The “sexual interest in child one” value in assay [1] (patient 2 (moderate expression of symptoms)) is listed as “reduction of their sexual interest in child one”.
